In patent publication US20230302140A1, “CONJUGATE OF A SINGLE DOMAIN ANTIBODY, A SAPONIN AND AN EFFECTOR MOLECULE, PHARMACEUTICAL COMPOSITION COMPRISING THE SAME, THERAPEUTIC USE OF SAID PHARMACEUTICAL COMPOSITION” (SAPREME TECHNOLOGIES B.V., priority 2020, published 2023):
pIC50: −log10 of the molar value.

Legend:
human EGFR (human) = human EGFR (human) (UniProt P00533); test: cell-based or functional assay
A2058 cells = test: Cell killing (MTS cell viability) assay; type: cell-based, human
Description: (§1) After treatment the cells were incubated for 72 hr at 37° C. before the cell viability was determined by a MTS-assay, performed according to the manufacturer’s instruction (CellTiter 96® AQueous One Solution Cell Proliferation Assay, Promega). Briefly, the MTS solution was diluted 20× in DMEM without phenol red (PAN-Biotech GmbH) supplemented with 10% FBS. The cells were washed once with 200 µL/PBS well, after which 100 µL diluted MTS solution was added/well. The plate was incubated for approximately 20-30 minutes at 37° C. Subsequently, the OD at 492 nm was measured on a Thermo Scientific Multiskan FC plate reader (Thermo Scientific). For quantification the background signal of ‘medium only’ wells was subtracted from all other wells, before the cell viability percentage of treated/untreated cells was calculated, by dividing the background corrected signal of treated wells over the background corrected signal of the untreated wells (x 100).
(§2) Cells were seeded in a 96 well plate at 5.000-1 0.000 c/w in 100 µL/well and incubated overnight at 37° C. […] The media was removed from the cell culture plate and replaced by 180 µL culture media, followed by the addition of 20 µL treatment-mix/well. […] In the case that endosomal acidification inhibitors (chloroquine (Sigma Aldrich) or bafilomycin A1 (Enzo Life Sciences)) were used, the cell culture media in step 1 of treatment was replaced by 180 µL media containing 1 µM chloroquine or 0.2 µM bafilomycin A1. The plate was incubated for 1 hour at 37° C., before the 10x treatment-mix samples were added. The remaining incubation and treatment steps were performed according to standard procedures known in the field.
(§3) After treatment the cells were incubated for 72 hr at 37° C. before the cell viability was determined by a MTS-assay, performed according to the manufacturer’s instruction (CellTiter 96® AQueous One Solution Cell Proliferation Assay, Promega). Briefly, the MTS solution was diluted 20x in DMEM without phenol red (PAN-Biotech GmbH) supplemented with 10% FBS (PAN-Biotech GmbH). The cells were washed once with 200 µL PBS per well, after which 100 µL diluted MTS solution was added per well. The plate was incubated for approximately 20-30 minutes at 37° C. Subsequently, the optical density at 492 nm was measured on a Thermo Scientific Multiskan FC plate reader (Thermo Scientific). For quantification the background signal of ‘medium only’ wells was subtracted from all other wells, before the ratio of […].

SK-BR-3 cells = test: Cell killing (MTS cell viability) assay; type: cell-based, human
Description: as §1, §2, §3

MDA-MB-468 cells = test: Cell killing (MTS cell viability) assay; type: cell-based, human
Description: as §1, §2, §3

CaSki cells = test: Cell killing (MTS cell viability) assay; type: cell-based, human
Description: as §2, §3

endosomal acidification = test: Cell viability assay with endosomal acidification inhibitors; type: cell-based; details: targeted 2-component system; chloroquine or bafilomycin A1
Description: as §2

JIMT-1 cells = test: Cell killing (MTS cell viability) assay; type: cell-based, human; details: +1500 nM SO1861 (unconjugated)
Description: as §2, §3

HeLa cells = test: Cell killing (MTS cell viability) assay; type: cell-based, human; details: +1500 nM SO1861 (unconjugated)
Description: as §2, §3

[1] = +50 pM VHH-EGFR-dianthin (fixed)
[2] = +50 pM CD71VHH-dianthin (fixed)
[3] = +50 pM VHH-HER2-dianthin (fixed)

“cetuximab-saporin (monoclonal antibody recognizing and binding EGFR, conjugated to the protein toxin, saporin)” gave a cell killing (MTS) on MDA-MB-468 cells (EGFR++), cetuximab-saporin alone, IC50 (human EGFR (human)) of 0.3 nM.
With `CC(=O)O[C@H]1[C@H](O[C@@H]2OC[C@@H](O)[C@H](O)[C@H]2O)[C@@H](O)[C@H](O[C@@H]2[C@H](O)[C@@H](O[C@@H]3O[C@@H](C)[C@H](O[C@@H]4OC[C@@H](O)[C@H](O[C@@H]5O[C@H](CO)[C@@H](O)[C@H](O)[C@H]5O)[C@H]4O)[C@@H](O)[C@H]3O)[C@H](OC(=O)[C@]34CCC(C)(C)C[C@H]3C3=CC[C@@H]5[C@@]6(C)CC[C@H](O[C@@H]7O[C@H](C(=O)O)[C@@H](O)[C@H](O[C@@H]8OC[C@@H](O)[C@H](O)[C@H]8O)[C@H]7O[C@@H]7O[C@H](CO)[C@H](O)[C@H](O)[C@H]7O)[C@@](C)(C=O)[C@@H]6CC[C@@]5(C)[C@]3(C)C[C@H]4O)O[C@@H]2C)O[C@@H]1C` [SO1861] the pIC50 (A2058 cells; +50 pM VHH-CD71-dianthin (fixed)) was 6.70, the IC50 cell killing (A2058 cells; [1]) was “no activity” and the pIC50 (SK-BR-3 cells; +1.5 pM EGF-dianthin (fixed), Ex.9/Table A6: calculated on concentration SO1861) was 6.10. For the same compound, the pIC50 (SK-BR-3 cells; +10 pM EGF-dianthin (fixed), Table A6: calculated on concentration SO1861) was 6.19, the pIC50 (SK-BR-3 cells; [2]) was 6.70 and the pIC50 (SK-BR-3 cells; [1]) was 6.15. For the same compound, the pIC50 (SK-BR-3 cells; [3]) was 6.70, the pIC50 (MDA-MB-468 cells; [2]) was 6.70 and the pIC50 (MDA-MB-468 cells; [1]) was 6.52. For the same compound, the IC50 cell killing (MDA-MB-468 cells; [3]) was “no enhanced activity compared to SO1861alone”, the pIC50 (CaSki cells; +10 pM cetuximab-saporin (fixed), calculated on concentration SO1861) was 6.15 and the pIC50 (CaSki cells; +50 pM trastuzumab-saporin (fixed), Ex.9/Table A6: calculated on concentration SO1861) was at most 6.00. For the same compound, the “SO1861 function with endosomal acidification inhibitors” value (endosomal acidification) was “function is reduced when acidification of endosomes is blocked”.
Saporin gave a pIC50 (JIMT-1 cells) of 10.52, a pIC50 (HeLa cells) of 10.52 and a pIC50 (CaSki cells; +1500 nM SO1861 (unconjugated)) of 10.82.
